Source: patent US9995734B2, “Human T cell line assay for evaluating the immunologic identity of glatiramer acetate preparations” (Mylan Inc., priority 2013, dated 2018)

Tested on: Donor 4 COP Responsive T-Cell Lines
Test: Multiplex bead cytokine assay (FlowCytomix), Donor 4 COP responsive T-cell lines
Format: cell-based, human
Parameters: IFN-γ / 1L-9 / IL-22 / IL-13: unit not given here
Conditions: for cytokine secretion: most tested Donor 4 cell lines, 20-24 hours
Method: The concentration of multiple cytokines was measured simultaneously using FlowCytoMix™ kits (eBioscience, San Diego Calif.). These are fluorescent bead based assays consisting of beads conjugated to anti cytokine antibodies. Beads specific for each cytokine are distinguished by size and fluorescence at 670 run. Cytokine bound to each bead is detected using a phycoerythrin conjugated antibody so that the fluorescence at 585 nm reflects the concentration of cytokine in the sample. Two kits were utilized which measured different cytokine panels. The TH1/TH2 kit measures IFN-γ, IL-1β, IL-2, IL-4, IL-5, IL-6, IL-8, IL-10, IL-12p70, TNF-α (TNF) and TNF-β (LT). The TH1/TH2/TH9/TH17/TH22 kit measures […], IL-1β, IL-2, IL-4, IL-5, IL-6, IL-9, IL-10, IL-12p70, IL-13, IL-17, IL-22, and TNF-α (TNF). Both kits were used following the manufacturer's instructions.
On Day 23 the positive wells (cell lines listed in Table 26) were transferred to a 24-well plate and restimulated with 10 μg/mL COP in the presence of mitomycin-treated autologous PBMC. IL-2 was added at Day 24. On Day 31 (after four rounds of restimulation) ten lines were restimulated with 10 μg/mL COP to confirm antigen reactivity by a cytokine secretion assay. T-cells were added at 2×10^4 cells/well in 96-well plates in X-VIVO 15 medium. Each line was separately stimulated with 10 μg/mL GMA, and 10 μg/mL COP in the presence of (2×10^5 cells/well, i.e., 1×10^6 cells/mL) mitomycin-treated autologous PBMC. Culture medium was collected after 20-24 hours for cytokine assay (FlowCytomix multiplex bead assay). The supernatants were tested in triplicate for IL-12 p70, IFN-γ, IL-2, IL-10, IL-6, IL-4, IL-5, TNF-α, and TNF-β secretion. […] Secretion of IL-2, 11-10, and IL-4 varied among the lines. All samples also secreted IL-8 (data not shown).
Culture medium from each of two Donor 4 cell lines was assayed for an extended panel of cytokines, showing production of IL-13 and IL-22 (Table 32).

[1] = T-cell line 1H9, 10 μg/mL, Day 31, medium after 20-24 hours
[2] = T-cell line 1H11, 10 μg/mL, Day 31, medium after 20-24 hours
[3] = T-cell line 205-1B4, extended cytokine multiplex assay
[4] = T-cell line 205-1B7, 10 μg/mL, Day 31, medium after 20-24 hours
[5] = T-cell line 205-1C4, 10 μg/mL, Day 31, medium after 20-24 hours
[6] = T-cell line 205-1F4, extended cytokine multiplex assay
[7] = T-cell line 205-1F5, 10 μg/mL, Day 31, medium after 20-24 hours
[8] = T-cell line 205-1G3, 10 μg/mL, Day 31, medium after 20-24 hours
[9] = T-cell line 205-1H5, 10 μg/mL, Day 31, medium after 20-24 hours
[10] = T-cell line 205-1H7, 10 μg/mL, Day 31, medium after 20-24 hours

Substance: glatiramer acetate [COP]
- IFN-y [1]: 419.21 pg/mL
- IL-2 [1]: <=0 pg/mL
- IL-4 [1]: <=0 pg/mL
- IL-5 [1]: <=0 pg/mL
- IL-6 [1]: <=0 pg/mL
- IL-10 [1]: <=0 pg/mL
- IL-12 p70 [1]: <=0 pg/mL
- TNF-α [1]: 159.6 pg/mL
- TNF-β [1]: <=0 pg/mL
- IFN-y [2]: 1016.21 pg/mL
- IL-2 [2]: 44.94 pg/mL
- IL-4 [2]: 2.09 pg/mL
- IL-5 [2]: 3665.58 pg/mL
- IL-6 [2]: 20.11 pg/mL
- IL-10 [2]: 143.84 pg/mL
- IL-12 p70 [2]: 3.68 pg/mL
- TNF-α [2]: 754.13 pg/mL
- TNF-β [2]: 1.55 pg/mL
- 1L-9 [3]: 29
- IFN-γ [3]: 726
- IL-2 [3]: 0
- IL-4 [3]: 174
- IL-5 [3]: 3660
- IL-6 [3]: 114
- IL-10 [3]: 32
- IL-13 [3]: 19288
- IL-22 [3]: 668
- TNF-α [3]: 1336
- IFN-y [4]: 935.78 pg/mL
- IL-2 [4]: 27.99 pg/mL
- IL-4 [4]: 200.19 pg/mL
- IL-5 [4]: 7199.83 pg/mL
- IL-6 [4]: 195.27 pg/mL
- IL-10 [4]: 210.01 pg/mL
- IL-12 p70 [4]: 18.39 pg/mL
- TNF-α [4]: 1286.09 pg/mL
- TNF-β [4]: 244.68 pg/mL
- IFN-y [5]: 1212.03 pg/mL
- IL-2 [5]: 478.51 pg/mL
- IL-4 [5]: 199.97 pg/mL
- IL-5 [5]: 6457.14 pg/mL
- IL-6 [5]: 159.24 pg/mL
- IL-10 [5]: 50.31 pg/mL
- IL-12 p70 [5]: 51.14 pg/mL
- TNF-α [5]: 1529.22 pg/mL
- TNF-β [5]: 69.07 pg/mL
- 1L-9 [6]: 10
- IFN-γ [6]: 1393
- IL-2 [6]: 110
- IL-4 [6]: 10
- IL-5 [6]: 1440
- IL-6 [6]: 77
- IL-10 [6]: 0
- IL-13 [6]: 4502
- IL-22 [6]: 168
- TNF-α [6]: 616
- IFN-y [7]: 452.76 pg/mL
- IL-2 [7]: 205.85 pg/mL
- IL-4 [7]: 293.46 pg/mL
- IL-5 [7]: 13727.89 pg/mL
- IL-6 [7]: 318.25 pg/mL
- IL-10 [7]: 323.52 pg/mL
- IL-12 p70 [7]: 55.94 pg/mL
- TNF-α [7]: 833.39 pg/mL
- TNF-β [7]: 278.68 pg/mL
- IFN-y [8]: 211.16 pg/mL
- IL-2 [8]: 10.89 pg/mL
- IL-4 [8]: <=0 pg/mL
- IL-5 [8]: 91.11 pg/mL
- IL-6 [8]: 11.79 pg/mL
- IL-10 [8]: <=0 pg/mL
- IL-12 p70 [8]: <=0 pg/mL
- TNF-α [8]: 38.56 pg/mL
- TNF-β [8]: <=0 pg/mL
- IFN-y [9]: 1149.77 pg/mL
- IL-2 [9]: 15.14 pg/mL
- IL-4 [9]: 79.67 pg/mL
- IL-5 [9]: 3106.45 pg/mL
- IL-6 [9]: 57.31 pg/mL
- IL-10 [9]: 28.45 pg/mL
- IL-12 p70 [9]: 7.96 pg/mL
- TNF-α [9]: 1260.75 pg/mL
- TNF-β [9]: 88.62 pg/mL
- IFN-y [10]: 1617.25 pg/mL
- IL-2 [10]: 351.63 pg/mL
- IL-4 [10]: 90.37 pg/mL
- IL-5 [10]: 101.71 pg/mL
- IL-6 [10]: 69.44 pg/mL
- IL-10 [10]: 10.06 pg/mL
- IL-12 p70 [10]: 11.11 pg/mL
- TNF-α [10]: 1924.81 pg/mL
- TNF-β [10]: 49.17 pg/mL
- cytokine secretion (Day 31, 10 μg/mL): secreted IFN-γ, IL-5, and TNF-α

Substance: glatiramer acetate [GMA]
- IFN-y [1]: 182.77 pg/mL
- IL-2 [1]: <=0 pg/mL
- IL-4 [1]: <=0 pg/mL
- IL-5 [1]: <=0 pg/mL
- IL-6 [1]: 74.92 pg/mL
- IL-10 [1]: <=0 pg/mL
- IL-12 p70 [1]: <=0 pg/mL
- TNF-α [1]: 161.89 pg/mL
- TNF-β [1]: <=0 pg/mL
- IFN-y [2]: 929 pg/mL
- IL-2 [2]: 22.78 pg/mL
- IL-4 [2]: <=0 pg/mL
- IL-5 [2]: 3349.8 pg/mL
- IL-6 [2]: 28.28 pg/mL
- IL-10 [2]: 145 pg/mL
- IL-12 p70 [2]: 2.24 pg/mL
- TNF-α [2]: 609.49 pg/mL
- TNF-β [2]: <=0 pg/mL
- 1L-9 [3]: 21
- IFN-γ [3]: 713
- IL-2 [3]: 0
- IL-4 [3]: 117
- IL-5 [3]: 3104
- IL-6 [3]: 109
- IL-10 [3]: 25
- IL-13 [3]: 13895
- IL-22 [3]: 478
- TNF-α [3]: 868
- IFN-y [4]: 828.5 pg/mL
- IL-2 [4]: 10.89 pg/mL
- IL-4 [4]: 187.29 pg/mL
- IL-5 [4]: 6854.13 pg/mL
- IL-6 [4]: 187.85 pg/mL
- IL-10 [4]: 182.81 pg/mL
- IL-12 p70 [4]: 44.57 pg/mL
- TNF-α [4]: 1305.37 pg/mL
- TNF-β [4]: 217.5 pg/mL
- IFN-y [5]: 1046.32 pg/mL
- IL-2 [5]: 312.13 pg/mL
- IL-4 [5]: 124.7 pg/mL
- IL-5 [5]: 5434.06 pg/mL
- IL-6 [5]: 149.35 pg/mL
- IL-10 [5]: 45.24 pg/mL
- IL-12 p70 [5]: 46.89 pg/mL
- TNF-α [5]: 1059.01 pg/mL
- TNF-β [5]: 81.04 pg/mL
- 1L-9 [6]: 7
- IFN-γ [6]: 1207
- IL-2 [6]: 76
- IL-4 [6]: 7
- IL-5 [6]: 1459
- IL-6 [6]: 73
- IL-10 [6]: 16
- IL-13 [6]: 4506
- IL-22 [6]: 186
- TNF-α [6]: 323
- IFN-y [7]: 479.26 pg/mL
- IL-2 [7]: 197.46 pg/mL
- IL-4 [7]: 328.72 pg/mL
- IL-5 [7]: 13930.97 pg/mL
- IL-6 [7]: 314.54 pg/mL
- IL-10 [7]: 231.63 pg/mL
- IL-12 p70 [7]: 67.53 pg/mL
- TNF-α [7]: 1084.01 pg/mL
- TNF-β [7]: 260.35 pg/mL
- IFN-y [8]: 193.91 pg/mL
- IL-2 [8]: 5.27 pg/mL
- IL-4 [8]: <=0 pg/mL
- IL-5 [8]: 121.17 pg/mL
- IL-6 [8]: 16.67 pg/mL
- IL-10 [8]: <=0 pg/mL
- IL-12 p70 [8]: 2.37 pg/mL
- TNF-α [8]: 68.79 pg/mL
- TNF-β [8]: 17.66 pg/mL
- IFN-y [9]: 902.95 pg/mL
- IL-2 [9]: <=0 pg/mL
- IL-4 [9]: 46.82 pg/mL
- IL-5 [9]: 2534.09 pg/mL
- IL-6 [9]: 52.4 pg/mL
- IL-10 [9]: <=0 pg/mL
- IL-12 p70 [9]: 8.78 pg/mL
- TNF-α [9]: 910.83 pg/mL
- TNF-β [9]: 79.8 pg/mL
- IFN-y [10]: 1275.97 pg/mL
- IL-2 [10]: 176.52 pg/mL
- IL-4 [10]: 58.41 pg/mL
- IL-5 [10]: 96.95 pg/mL
- IL-6 [10]: 64.82 pg/mL
- IL-10 [10]: <=0 pg/mL
- IL-12 p70 [10]: 13.42 pg/mL
- TNF-α [10]: 552.89 pg/mL
- TNF-β [10]: 34.81 pg/mL
- cytokine secretion (Day 31, 10 μg/mL): secreted IFN-γ, IL-5, and TNF-α
